Measured values taken from patent publication US12208088B2 (Genentech, Inc., priority 2018, dated 2025).

These compounds were tested against HPK1 (Homo sapiens (Human), UniProt Q92918) (assay: HPK1 Lantha binding assay ("Lanth")). Conditions: binding assays; Morrison Ki fit.
In short: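 Ki values are from Morrison-equation fitting of 665/615 nm TR-FRET signals, taking enzyme level, tracer level and tracer Kd into account. The assay mix held HPK1 (2 nM), Eu-anti-GST antibody (2 nM) and Tracer222 (15 nM). Incubations were two 1 h steps at 23 °C, on 5-fold serial compound dilutions.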

Sequence of HPK1 (Q92918 1-346 limits assumed): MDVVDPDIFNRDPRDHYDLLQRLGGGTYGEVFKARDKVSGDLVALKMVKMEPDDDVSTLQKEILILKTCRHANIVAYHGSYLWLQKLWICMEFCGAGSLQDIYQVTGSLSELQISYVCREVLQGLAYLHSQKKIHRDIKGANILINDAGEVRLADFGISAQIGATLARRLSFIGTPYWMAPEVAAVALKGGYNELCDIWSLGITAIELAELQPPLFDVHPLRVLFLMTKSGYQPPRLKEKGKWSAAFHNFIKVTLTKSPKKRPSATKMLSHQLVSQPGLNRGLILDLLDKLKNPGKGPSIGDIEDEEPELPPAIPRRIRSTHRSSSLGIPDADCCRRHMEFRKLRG

SMILES | Ki [nM]
CN(C)C(=O)c1cccc(-c2cnc3c(c2)C2(CC2)CN3)c1F [Compound 149, 3-(1′,2′-dihydrospiro[cyclopropane-1,3′-pyrrolo[2,3-b]pyridin]-5′-yl)-2-fluoro-N,N-dimethylbenzamide] | 33.5
CN(C)C(=O)c1c(N)ccc(-c2cnc3c(c2Cl)C2(CCC(c4cccnc4)C2)CN3)c1F (stereo not shown) [Compound 145, 6-Amino-3-(4′-chloro-3-(pyridin-3-yl)-1′,2′-dihydrospiro[cyclopentane-1,3′-pyrrolo[2,3-b]pyridin]-5′-yl)-2-fluoro-N,N-dimethylbenzamide] | 9.37
CN(C)C(=O)c1cc(N)cc(-c2cnc3c(c2)C2(CC2)CN3)n1 [Compound 294, 4-amino-6-(1′,2′-dihydrospiro[cyclopropane-1,3′-pyrrolo[2,3-b]pyridin]-5′-yl)-N,N-dimethylpicolinamide] | 309
CC(C)C1CN(C(=O)c2cccc(-c3cnc4c(c3)C3(CC3)CN4)c2F)C1 [Compound 139, (3-(1′,2′-dihydrospiro[cyclopropane-1,3′-pyrrolo[2,3-b]pyridin]-5′-yl)-2-fluorophenyl)(3-isopropylazetidin-1-yl)methanone] | 120
CN(C)C(=O)c1c(N)ccc(-c2cnc3c(c2Cl)[C@]2(CN3)C[C@@H]2CO)c1F [Compound 39b, 6-Amino-3-((1S,2S)-4′-chloro-2-(hydroxymethyl)-1′,2′-dihydrospiro[cyclopropane-1,3′-pyrrolo[2,3-b]pyridin]-5′-yl)-2-fluoro-N,N-dimethylbenzamide] | 40.5
CN(C)C(=O)c1c(N)ccc(-c2cnc3c(c2Cl)C2(CC=CC2)CN3)c1F [Compound 28, 6-Amino-3-(4′-chloro-1′,2′-dihydrospiro[cyclopentane-1,3′-pyrrolo[2,3-b]pyridin]-3-en-5′-yl)-2-fluoro-N,N-dimethylbenzamide] | 6.95
O=C1NCCCN1c1cccc(-c2cnc3c(c2Cl)C2(CC2)CN3)c1 [Compound 59, 1-(3-(4′-Chloro-1′,2′-dihydrospiro[cyclopropane-1,3′-pyrrolo[2,3-b]pyridin]-5′-yl)phenyl)tetrahydropyrimidin-2(1H)-one] | 14.2
Cn1cccc(-c2cccc(-c3cnc4c(c3Cl)C3(CC3)CN4)c2)c1=O [Compound 57, 3-(3-(4′-Chloro-1′,2′-dihydrospiro[cyclopropane-1,3′-pyrrolo[2,3-b]pyridin]-5′-yl)phenyl)-1-methylpyridin-2(1H)-one] | 9.06
CO[C@H]1CC[C@@]2(CNc3ncc(-c4ccc(N)c(C(=O)N(C)C)c4F)c(Cl)c32)C1 (relative stereo) [Compound 81c, 6-Amino-3-((1R,3S)-4′-chloro-3-methoxy-1′,2′-dihydrospiro[cyclopentane-1,3′-pyrrolo[2,3-b]pyridin]-5′-yl)-2-fluoro-N,N-dimethylbenzamide] | 17.7
CN(C)C(=O)c1c(N)ccc(-c2cnc3c(c2Cl)[C@]2(CC[C@H](n4nccn4)C2)CN3)c1F (relative stereo) [Compound 89a, 6-Amino-3-((1R,3S)-4′-chloro-3-(2H-1,2,3-triazol-2-yl)-1′,2′-dihydrospiro[cyclopentane-1,3′-pyrrolo[2,3-b]pyridin]-5′-yl)-2-fluoro-N,N-dimethylbenzamide] | 6
OCc1cccc(-c2cnc3c(c2Cl)C2(CC=CC2)CN3)c1F [Compound 219, (3-(4′-Chloro-1′,2′-dihydrospiro[cyclopentane-1,3′-pyrrolo[2,3-b]pyridin]-3-en-5′-yl)-2-fluorophenyl)methanol] | 478
Cc1c(CC#N)ccnc1-c1cccc(-c2cnc3c(c2Cl)C2(CC=CC2)CN3)c1 [Compound 249, 2-(2-(3-(4′-Chloro-1′,2′-dihydrospiro[cyclopentane-1,3′-pyrrolo[2,3-b]pyridin]-3-en-5′-yl)phenyl)-3-methylpyridin-4-yl)acetonitrile] | 4.3
NS(=O)(=O)Cc1ccc(-c2cnc3c(c2)C2(CC2)CN3)cc1 [Compound 11, (4-(1′,2′-Dihydrospiro[cyclopropane-1,3′-pyrrolo[2,3-b]pyridin]-5′-yl)phenyl)methanesulfonamide] | 91.2
CN(C)C(=O)c1cccc2c(-c3cnc4c(c3)C3(CC3)CN4)c[nH]c12 [Compound 297, 3-(1′,2′-Dihydrospiro[cyclopropane-1,3′-pyrrolo[2,3-b]pyridin]-5′-yl)-N,N-dimethyl-1H-indole-7-carboxamide] | 57.6
O=C1Nc2ccc(-c3cnc4c(c3)C3(CC3)CN4)cc2C1(O)C1CC1 (stereo not shown) [Compound 23, 3-cyclopropyl-5-(1′,2′-dihydrospiro[cyclopropane-1,3′-pyrrolo[2,3-b]pyridin]-5′-yl)-3-hydroxyindolin-2-one] | 184
CN(C)C(=O)c1c(N)ccc(-c2cnc3c(c2Cl)[C@]2(CC[C@@H](n4ccnn4)C2)CN3)c1F (single isomer, unassigned) [Compound 90c] | 80.4
CCN(CCO)C(=O)c1cccc(-c2cnc3c(c2Cl)C2(CC2)CN3)c1F [Compound 46, 3-(4′-Chloro-1′,2′-dihydrospiro[cyclopropane-1,3′-pyrrolo[2,3-b]pyridin]-5′-yl)-N-ethyl-2-fluoro-N-(2-hydroxyethyl)benzamide] | 38.6
CN(C)C(=O)c1c(N)ccc(-c2cnc3c(c2Cl)[C@]2(CC[C@H](C(=O)N(C)C)C2)CN3)c1F (single isomer, unassigned) [Compound 107a] | 50.1
O=C1Nc2ccc(-c3cnc4c(c3Cl)C3(CC3)CN4)cc2C1(O)C1CC1 (stereo not shown) [Compound 280, 5-(4′-chloro-1′,2′-dihydrospiro[cyclopropane-1,3′-pyrrolo[2,3-b]pyridin]-5′-yl)-3-cyclopropyl-3-hydroxyindolin-2-one] | 179
CN(C)C(=O)c1c(N)ccc(-c2cnc3c(c2Cl)[C@]2(CC[C@H](N4CCOC4=O)C2)CN3)c1F (relative stereo) [Compound 124a, 6-Amino-3-((1R,3S)-4′-chloro-3-(2-oxooxazolidin-3-yl)-1′,2′-dihydrospiro[cyclopentane-1,3′-pyrrolo[2,3-b]pyridin]-5′-yl)-2-fluoro-N,N-dimethylbenzamide] | 35
O=C1NCCC1c1cccc(-c2cnc3c(c2Cl)C2(CC2)CN3)c1 (stereo not shown) [Compound 73] | 26.1
COc1c(-c2ccc(N)c(C(=O)N(C)C)c2F)cnc2c1C1(CC1)CN2 [Compound 31, 6-Amino-2-fluoro-3-(4′-methoxy-1′,2′-dihydrospiro[cyclopropane-1,3′-pyrrolo[2,3-b]pyridin]-5′-yl)-N,N-dimethylbenzamide] | 28.6
CN1CCN(c2cc(C#N)cc3c(-c4cnc5c(c4)C4(CC4)CN5)c[nH]c23)C(=O)C1 [Compound 324, 3-(1′,2′-Dihydrospiro[cyclopropane-1,3′-pyrrolo[2,3-b]pyridin]-5′-yl)-7-(4-methyl-2-oxopiperazin-1-yl)-1H-indole-5-carbonitrile] | 30.4

Now from value to compound:

Ki [nM] | SMILES
6.01 | CN(C)C(=O)c1c(N)ccc(-c2cnc3c(c2Cl)[C@]2(CC[C@H](CO)CC2)CN3)c1F [Compound 248a, 6-Amino-3-((1s,4s)-4′-chloro-4-(hydroxymethyl)-1′,2′-dihydrospiro[cyclohexane-1,3′-pyrrolo[2,3-b]pyridin]-5′-yl)-2-fluoro-N,N-dimethylbenzamide]
11.9 | CN(C)C(=O)c1c(N)ccc(-c2cnc3c(c2Cl)[C@]2(CC[C@H](C(N)=O)CC2)CN3)c1F [Compound 235b, (1s,4s)-5′-(4-Amino-3-(dimethylcarbamoyl)-2-fluorophenyl)-4′-chloro-1′,2′-dihydrospiro[cyclohexane-1,3′-pyrrolo[2,3-b]pyridine]-4-carboxamide]
559 | Nc1ccc(-c2cnc3c(c2)C2(CC2)CN3)nc1C(=O)N1CC[C@H](O)C1 [Compound 290a, (S)-(3-amino-6-(1′,2′-dihydrospiro[cyclopropane-1,3′-pyrrolo[2,3-b]pyridin]-5′-yl)pyridin-2-yl)(3-hydroxypyrrolidin-1-yl)methanone]
26.3 | CN(C)C(=O)c1c(N)ccc(-c2cnc3c(c2Cl)[C@]2(CC[C@H](n4ccc(C(F)(F)F)n4)C2)CN3)c1F (single isomer, unassigned) [Compound 168a]
9.94 | CN(C)C(=O)c1c(N)ccc(-c2cnc3c(c2Cl)[C@]2(CC[C@@H](c4cccnc4)C2)CN3)c1F [Compound 145a, 6-Amino-3-((1R,3R)-4′-chloro-3-(pyridin-3-yl)-1′,2′-dihydrospiro[cyclopentane-1,3′-pyrrolo[2,3-b]pyridin]-5′-yl)-2-fluoro-N,N-dimethylbenzamide]
6.41 | COc1c(-c2ccc(N)c(C(=O)N(C)C)c2F)cnc2c1[C@@]1(CN2)C[C@@H]1C (relative stereo) [Compound 165a, 6-Amino-2-fluoro-3-((1R,2S)-4′-methoxy-2-methyl-1′,2′-dihydrospiro[cyclopropane-1,3′-pyrrolo[2,3-b]pyridin]-5′-yl)-N,N-dimethylbenzamide]
190 | CN(C)C(=O)c1c(N)ccc(-c2cnc3c(c2Cl)[C@]2(CC[C@@H](CN)CC2)CN3)c1F [Compound 258a, 6-Amino-3-((1r,4r)-4-(aminomethyl)-4′-chloro-1′,2′-dihydrospiro[cyclohexane-1,3′-pyrrolo[2,3-b]pyridin]-5′-yl)-2-fluoro-N,N-dimethylbenzamide]
105 | CN(C)C(=O)c1cccc(-c2cnc3c(c2)[C@@]2(CC[C@@](C)(C(N)=O)C2)CN3)c1F (single isomer, unassigned) [Compound 199b]
941 | CN(C)C(=O)c1cccc(-c2cnc3c(c2)[C@]2(CC[C@](C)(C(N)=O)C2)CN3)c1F (single isomer, unassigned) [Compound 199a]
3.64 | CC(C)[C@H]1C[C@@]12CNc1ncc(-c3ccc(N)c(C(=O)N(C)C)c3F)c(Cl)c12 (single isomer, unassigned) [Compound 193a]
32.2 | Cc1ccn([C@H]2CC[C@@]3(CNc4ncc(-c5ccc(N)c(C(=O)N(C)C)c5F)c(Cl)c43)C2)n1 (relative stereo) [Compound 159a, 6-Amino-3-((1R,3S)-4′-chloro-3-(3-methyl-1H-pyrazol-1-yl)-1′,2′-dihydrospiro[cyclopentane-1,3′-pyrrolo[2,3-b]pyridin]-5′-yl)-2-fluoro-N,N-dimethylbenzamide]
